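All cell lines were grown in 96-well plates and treated with compound for 48 hours. GI50 = concentration required for 50% inhibition of growth. TGI: concentration producing complete growth inhibition.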
Columns and labels:
Test in all cases: NCI anticancer screen, dose series, 48 h
[1] = test system: RPMI-8226 leukemia
[2] = test system: UO-31 renal
[3] = test system: MCF7 breast
[4] = test system: OVCAR-4 ovarian
[5] = test system: A549 NSCLC
[6] = test system: OVCAR-8 ovarian
[7] = test system: IGROV1 ovarian
[8] = test system: SK-MEL-2 melanoma
[9] = test system: CAKI-1 renal
[10] = test system: SN12C renal
[11] = test system: DU-145 prostate
[12] = test system: M14 melanoma
[13] = test system: SR leukemia
[14] = test system: BT-549 breast
[15] = test system: SK-MEL-28 melanoma
[16] = test system: SNB-75 CNS
[17] = test system: HT29 colon
[18] = test system: HS 578T breast
[19] = test system: COLO 205 colon
[20] = test system: U251 CNS
[21] = test system: NCI-H460 lung
[22] = test system: KM12 colon
[23] = test system: UACC-257 melanoma
[24] = test system: HCT-15 colon
[25] = test system: TK-10 renal
[26] = test system: SF-295 CNS
[27] = test system: SF-268 CNS
[28] = test system: UACC-62 melanoma
[29] = test system: NCI-H522 lung

Fc1ccc2[nH]cc(Cc3c[nH]c4ccc(F)cc34)c2c1
GI50 [1]: 21 µM
TGI [1]: 62.2 µM
GI50 [2]: 13.7 µM
TGI [2]: 33.7 µM
GI50 [3]: 35.6 µM
TGI [3]: > 100 µM
GI50 [4]: 32 µM
TGI [4]: > 100 µM
GI50 [5]: 17.3 µM
TGI [5]: 50.9 µM
GI50 [6]: 19.4 µM
TGI [6]: 52 µM
GI50 [7]: 16.9 µM
TGI [7]: 41.6 µM
GI50 [8]: 19.8 µM
TGI [8]: 46.1 µM
GI50 [9]: 12.1 µM
TGI [9]: 34.3 µM
GI50 [10]: 21.6 µM
TGI [10]: 51.4 µM
GI50 [11]: 27.8 µM
TGI [11]: 85.7 µM
GI50 [12]: 20.2 µM
TGI [12]: 42.9 µM
GI50 [13]: 31.1 µM
TGI [13]: > 100 µM
GI50 [14]: 13.9 µM
TGI [14]: 30.3 µM
GI50 [15]: 25.3 µM
TGI [15]: 76.7 µM
GI50 [16]: 29 µM
TGI [16]: 85.6 µM
GI50 [17]: 31.4 µM
TGI [17]: > 100 µM
GI50 [18]: 18.5 µM
TGI [18]: 44.5 µM
GI50 [19]: 28.2 µM
TGI [19]: 95.6 µM
GI50 [20]: 19.7 µM
TGI [20]: 44.8 µM
GI50 [21]: 25.3 µM
TGI [21]: > 100 µM
GI50 [22]: 12 µM
TGI [22]: 30.2 µM
GI50 [23]: 15.7 µM
TGI [23]: 30.8 µM
GI50 [24]: 17.5 µM
TGI [24]: 55.6 µM
GI50 [25]: 28.9 µM
TGI [25]: 68.6 µM
GI50 [26]: 20.6 µM
TGI [26]: 47.9 µM
GI50 [27]: 17.5 µM
TGI [27]: 77.6 µM
GI50 [28]: 12 µM
TGI [28]: 28.3 µM
GI50 [29]: 14.3 µM

Source: PubChem BioAssay (NCI)
